For the experiment, the target named is T1, human amylin receptor (amylin 3(a) receptor: human calcitonin receptor + RAMP-3) (Homo sapiens, UniProt O60896+P30988).
T1 construct: expressed in transfected cells
T1 sequence (P30988 25-474): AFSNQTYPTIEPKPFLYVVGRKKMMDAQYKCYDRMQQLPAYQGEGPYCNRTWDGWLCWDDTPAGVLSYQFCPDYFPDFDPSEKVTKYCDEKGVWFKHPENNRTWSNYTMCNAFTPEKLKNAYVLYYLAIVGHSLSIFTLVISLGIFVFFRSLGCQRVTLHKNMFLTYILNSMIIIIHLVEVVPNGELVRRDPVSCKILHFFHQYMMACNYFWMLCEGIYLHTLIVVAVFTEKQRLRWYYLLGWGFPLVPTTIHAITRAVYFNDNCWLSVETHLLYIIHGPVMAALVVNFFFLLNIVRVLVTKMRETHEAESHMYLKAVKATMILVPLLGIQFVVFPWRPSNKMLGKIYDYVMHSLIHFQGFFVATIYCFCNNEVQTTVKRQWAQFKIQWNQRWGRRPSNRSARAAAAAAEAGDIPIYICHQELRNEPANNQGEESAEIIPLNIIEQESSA
T1 sequence (O60896 24-148 partner): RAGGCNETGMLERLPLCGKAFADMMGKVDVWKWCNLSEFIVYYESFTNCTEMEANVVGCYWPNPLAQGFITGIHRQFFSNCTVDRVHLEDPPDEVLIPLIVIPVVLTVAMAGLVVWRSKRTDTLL
Briefly: Assay (II)a functional assay, human amylin receptor (CRE luciferase, BHK cells). It counts as cell-based.

Setting [1] is: Table 6, human functional selectivity (hCTR EC50 / hAmylin-R EC50).
[2] abbreviates: Table 6a, human functional selectivity (hCTR EC50 / hAmylin-R EC50), at least 5.
Setting [3] is: Table 6j, hCTR funct. EC50 / hAmylin-R funct. EC50.
[4] abbreviates: Table 6k, hCTR funct. EC50 / hAmylin-R funct. EC50.
Where [5] appears, read: Table 6i, hCTR funct. EC50 / hAmylin-R funct. EC50.

Numbered stars: 1 amine (or outer) side, 2 acyl side, 3 side chain; on linkers, the order of the positions; unused ones are H or OH. Bridge positions count the residues as written; N and C are the ends. Side chains are listed from the residue outwards. Peptide text beside a SMILES is read from it. * marks the point of attachment. C20 diacid = O=C(O)CCCCCCCCCCCCCCCCCCC(=O)*; γGlu = O=C(O)[C@H](CCC(=O)[*:2])N[*:1]; AEEA = NCCOCCOCC(=O)O

Regarding `CC[C@H](C)[C@H](NC(=O)[C@H](C)NC(=O)CNC(=O)[C@H](Cc1ccccc1)NC(=O)[C@H](CC(N)=O)NC(=O)[C@@H]1CCCN1C(=O)[C@H](CO)NC(=O)[C@H](CO)NC(=O)[C@H](Cc1c[nH]cn1)NC(=O)[C@H](CCCNC(=N)N)NC(=O)[C@H](CC(C)C)NC(=O)[C@H](Cc1ccccc1)NC(=O)[C@H](CC(N)=O)NC(=O)[C@H](C)NC(=O)[C@H](CC(C)C)NC(=O)[C@H](CCCNC(=N)N)NC(=O)[C@H](CCC(N)=O)NC(=O)[C@@H](NC(=O)[C@H](C)NC(=O)[C@@H]1CSSC[C@H](NC(=O)[C@@H](N)CCCCNC(=O)CC[C@H](NC(=O)CCCCCCCCCCCCCCCCCCC(=O)O)C(=O)O)C(=O)N[C@@H](CC(N)=O)C(=O)N[C@@H]([C@@H](C)O)C(=O)N[C@@H](C)C(=O)N[C@@H]([C@@H](C)O)C(=O)N1)[C@@H](C)O)C(=O)N1CCC[C@H]1C(=O)N[C@@H](CO)C(=O)N[C@@H](CO)C(=O)N[C@H](C(=O)N[C@@H](CC(N)=O)C(=O)N[C@H](C(=O)NCC(=O)N[C@@H](CO)C(=O)N[C@@H](CCCCN)C(=O)N[C@H](C(=O)N[C@@H](Cc1ccc(O)cc1)C(N)=O)[C@@H](C)O)C(C)C)[C@@H](C)O` [Example 35] (H-K([γGlu-C20 diacid])CNTATCATQRLANFLRHSSPNFGAIPSSTNVGSKTY-NH2; disulfide 2-7; N-terminus assumed), the “Ratio hCT/hAmylin funct.” value came to 15.0 under setting [1], 15.0 under setting [2], 15.0 under setting [3] and 15.0 under setting [4].
Consider `CC[C@H](C)[C@H](NC(=O)[C@H](C)NC(=O)CNC(=O)[C@H](Cc1ccccc1)NC(=O)[C@H](CC(N)=O)NC(=O)[C@@H]1CCCN1C(=O)[C@H](CO)NC(=O)[C@H](CO)NC(=O)[C@H](Cc1c[nH]cn1)NC(=O)[C@H](CCCNC(=N)N)NC(=O)[C@H](CC(C)C)NC(=O)[C@H](Cc1ccccc1)NC(=O)[C@H](CCC(=O)O)NC(=O)[C@H](C)NC(=O)[C@H](CC(C)C)NC(=O)[C@H](CCCNC(=N)N)NC(=O)[C@H](CCC(N)=O)NC(=O)[C@@H](NC(=O)[C@H](C)NC(=O)[C@@H]1CSSC[C@H](NC(=O)[C@@H](N)CCCCNC(=O)CC[C@H](NC(=O)CC[C@H](NC(=O)CCCCCCCCCCCCCCCCCCC(=O)O)C(=O)O)C(=O)O)C(=O)N[C@@H](CC(N)=O)C(=O)N[C@@H]([C@@H](C)O)C(=O)N[C@@H](C)C(=O)N[C@@H]([C@@H](C)O)C(=O)N1)[C@@H](C)O)C(=O)N1CCC[C@H]1C(=O)N[C@@H](CO)C(=O)N[C@@H](CO)C(=O)N[C@H](C(=O)N[C@@H](CC(N)=O)C(=O)N[C@H](C(=O)NCC(=O)N[C@@H](Cc1c[nH]cn1)C(=O)N[C@@H](CC(N)=O)C(=O)N[C@H](C(=O)N[C@@H](Cc1ccc(O)cc1)C(N)=O)[C@@H](C)O)C(C)C)[C@@H](C)O` [Example 87] (H-K([γGlu-γGlu-C20 diacid])CNTATCATQRLAEFLRHSSPNFGAIPSSTNVGHNTY-NH2; disulfide 2-7), for which the “Ratio hCT/hAmylin funct.” value runs as follows: under setting [1], 3.8; under setting [5], 3.8; under setting [3], 3.8.
On to `CC[C@H](C)[C@H](NC(=O)[C@H](C)NC(=O)CNC(=O)[C@H](Cc1ccccc1)NC(=O)[C@H](CC(N)=O)NC(=O)[C@@H]1CCCN1C(=O)[C@H](CO)NC(=O)[C@H](CO)NC(=O)[C@H](Cc1c[nH]cn1)NC(=O)[C@H](CCCNC(=N)N)NC(=O)[C@H](CC(C)C)NC(=O)[C@H](Cc1ccccc1)NC(=O)[C@H](CC(N)=O)NC(=O)[C@H](C)NC(=O)[C@H](CC(C)C)NC(=O)[C@H](CCCNC(=N)N)NC(=O)[C@H](CCC(N)=O)NC(=O)[C@@H](NC(=O)[C@H](C)NC(=O)[C@@H]1CSSC[C@H](NC(=O)[C@@H](N)CCCCNC(=O)COCCOCCNC(=O)CCCCCCCCCCCCCCCCCCC(=O)O)C(=O)N[C@@H](CC(N)=O)C(=O)N[C@@H]([C@@H](C)O)C(=O)N[C@@H](C)C(=O)N[C@@H]([C@@H](C)O)C(=O)N1)[C@@H](C)O)C(=O)N1CCC[C@H]1C(=O)N[C@@H](CO)C(=O)N[C@@H](CO)C(=O)N[C@H](C(=O)N[C@@H](CC(N)=O)C(=O)N[C@H](C(=O)NCC(=O)N[C@@H](CO)C(=O)N[C@@H](CC(N)=O)C(=O)N[C@H](C(=O)N[C@@H](Cc1ccc(O)cc1)C(N)=O)[C@@H](C)O)C(C)C)[C@@H](C)O` [Example 43], for which the “Ratio hCT/hAmylin funct.” value came to 6.5 under setting [1], 6.5 under setting [2], 6.5 under setting [3] and 6.5 under setting [4].
For the compound `CC[C@H](C)[C@H](NC(=O)[C@H](C)NC(=O)CNC(=O)[C@H](Cc1ccccc1)NC(=O)[C@H](CC(N)=O)NC(=O)[C@@H]1CCCN1C(=O)[C@H](CO)NC(=O)[C@H](CO)NC(=O)[C@H](Cc1c[nH]cn1)NC(=O)[C@H](CCCNC(=N)N)NC(=O)[C@H](CC(C)C)NC(=O)[C@H](Cc1ccccc1)NC(=O)[C@H](C)NC(=O)[C@H](C)NC(=O)[C@H](CC(C)C)NC(=O)[C@H](CCCNC(=N)N)NC(=O)[C@H](CCC(N)=O)NC(=O)[C@@H](NC(=O)[C@H](C)NC(=O)[C@@H]1CSSC[C@H](NC(=O)[C@@H](N)CCCCNC(=O)CC[C@H](NC(=O)CCCCCCCCCCCCCCCCCCC(=O)O)C(=O)O)C(=O)N[C@@H](CC(N)=O)C(=O)N[C@@H]([C@@H](C)O)C(=O)N[C@@H](C)C(=O)N[C@@H]([C@@H](C)O)C(=O)N1)[C@@H](C)O)C(=O)N1CCC[C@H]1C(=O)N[C@@H](CO)C(=O)N[C@@H](CO)C(=O)N[C@H](C(=O)N[C@@H](CC(N)=O)C(=O)N[C@H](C(=O)NCC(=O)N1CCC[C@H]1C(=O)N[C@@H](CC(N)=O)C(=O)N[C@H](C(=O)N[C@@H](Cc1ccc(O)cc1)C(N)=O)[C@@H](C)O)C(C)C)[C@@H](C)O` [Example 94] (H-K([γGlu-C20 diacid])CNTATCATQRLAAFLRHSSPNFGAIPSSTNVGPNTY-NH2; disulfide 2-7; N-terminus assumed), the “Ratio hCT/hAmylin funct.” value under setting [1] amounted to 4.5.
As for `CC[C@H](C)[C@H](NC(=O)[C@H](C)NC(=O)CNC(=O)[C@H](Cc1ccccc1)NC(=O)[C@H](CC(N)=O)NC(=O)[C@@H]1CCCN1C(=O)[C@H](CO)NC(=O)[C@H](CO)NC(=O)[C@H](Cc1c[nH]cn1)NC(=O)[C@H](CCCNC(=N)N)NC(=O)[C@H](CC(C)C)NC(=O)[C@H](Cc1ccccc1)NC(=O)[C@H](CC(N)=O)NC(=O)[C@H](C)NC(=O)[C@H](CC(C)C)NC(=O)[C@H](CCCNC(=N)N)NC(=O)[C@H](CCC(N)=O)NC(=O)[C@@H](NC(=O)[C@H](C)NC(=O)[C@@H]1CSSC[C@H](NC(=O)[C@@H](N)CCCCNC(=O)COCCOCCNC(=O)COCCOCCNC(=O)CC[C@H](NC(=O)CCCCCCCCCCCCCCCCCCC(=O)O)C(=O)O)C(=O)N[C@@H](CC(N)=O)C(=O)N[C@@H]([C@@H](C)O)C(=O)N[C@@H](C)C(=O)N[C@@H]([C@@H](C)O)C(=O)N1)[C@@H](C)O)C(=O)N1CCC[C@H]1C(=O)N[C@@H](CO)C(=O)N[C@@H](CO)C(=O)N[C@H](C(=O)N[C@@H](CC(N)=O)C(=O)N[C@H](C(=O)NCC(=O)N[C@@H](CCCNC(=N)N)C(=O)N[C@@H](CC(N)=O)C(=O)N[C@H](C(=O)N[C@@H](Cc1ccc(O)cc1)C(N)=O)[C@@H](C)O)C(C)C)[C@@H](C)O` [Example 95] (H-K([AEEA-AEEA-γGlu-C20 diacid])CNTATCATQRLANFLRHSSPNFGAIPSSTNVGRNTY-NH2; disulfide 2-7 (inferred); N-terminus and C-terminus assumed), the “Ratio hCT/hAmylin funct.” value reads like this: under setting [1], 33.0; under setting [2], 33.0; under setting [3], 33.0; under setting [4], 33.0.
For the compound `CC[C@H](C)[C@H](NC(=O)[C@H](C)NC(=O)CNC(=O)[C@H](Cc1ccccc1)NC(=O)[C@H](CC(N)=O)NC(=O)[C@@H]1CCCN1C(=O)[C@H](CO)NC(=O)[C@H](CO)NC(=O)[C@H](Cc1c[nH]cn1)NC(=O)[C@H](CCCNC(=N)N)NC(=O)[C@H](CC(C)C)NC(=O)[C@H](Cc1ccccc1)NC(=O)[C@H](CCC(=O)O)NC(=O)[C@H](C)NC(=O)[C@H](CC(C)C)NC(=O)[C@H](CCCNC(=N)N)NC(=O)[C@H](CCC(N)=O)NC(=O)[C@@H](NC(=O)[C@H](C)NC(=O)[C@@H]1CSSC[C@H](NC(=O)[C@@H](N)CCCCNC(=O)CC[C@H](NC(=O)CCCCCCCCCCCCCCCCCCC(=O)O)C(=O)O)C(=O)N[C@@H](CC(N)=O)C(=O)N[C@@H]([C@@H](C)O)C(=O)N[C@@H](C)C(=O)N[C@@H]([C@@H](C)O)C(=O)N1)[C@@H](C)O)C(=O)N1CCC[C@H]1C(=O)N[C@@H](CO)C(=O)N[C@@H](CO)C(=O)N[C@H](C(=O)N[C@@H](CC(N)=O)C(=O)N[C@H](C(=O)NCC(=O)N[C@@H](Cc1c[nH]cn1)C(=O)N[C@@H](CCC(=O)O)C(=O)N[C@H](C(=O)N[C@@H](Cc1ccc(O)cc1)C(N)=O)[C@@H](C)O)C(C)C)[C@@H](C)O` [Example 107] (H-K([γGlu-C20 diacid])CNTATCATQRLAEFLRHSSPNFGAIPSSTNVGHETY-NH2; disulfide 2-7 (inferred); N-terminus and C-terminus assumed), the “Ratio hCT/hAmylin funct.” value under setting [1] was found to be 6.3; the “Ratio hCT/hAmylin funct.” value under setting [2] came out at 6.3; the “Ratio hCT/hAmylin funct.” value under setting [5] is recorded as 6.3; the “Ratio hCT/hAmylin funct.” value under setting [3] was found to be 6.3; the “Ratio hCT/hAmylin funct.” value under setting [4] was determined as 6.3.
